Patent US20100272773A1, “Use of Drug Polymorphs to Achieve Controlled Drug Delivery From a Coated Medical Device” (BOSTON SCIENTIFIC SCIMED, INC., priority 2009, published 2010)

Experiment: Calculated time for complete dissolution of Ptx transferred to the vessel
Type: physicochemical
Settings: ~23 μg Ptx transferred to vessel divided by dissolution rate
Excerpt: The ability to control the Ptx morphology on a drug coated balloon is important in achieving proper dosing. This is illustrated by the following example. […] Other factors such as particle size will also influence dissolution.

| Time for complete dissolution | Time for complete dissolution of the Ptx | Compound |
| --- | --- | --- |
| about 10 days | – | CC(=O)O[C@H]1C(=O)[C@@]2(C)[C@H]([C@H](OC(=O)c3ccccc3)[C@]3(O)C[C@H](OC(=O)[C@H](O)[C@@H](NC(=O)c4ccccc4)c4ccccc4)C(C)=C1C3(C)C)[C@]1(OC(C)=O)CO[C@@H]1C[C@@H]2O [PTx 2H2O Crystalline, paclitaxel] |
| – | about 1 day | CC(=O)O[C@H]1C(=O)[C@@]2(C)[C@H]([C@H](OC(=O)c3ccccc3)[C@]3(O)C[C@H](OC(=O)[C@H](O)[C@@H](NC(=O)c4ccccc4)c4ccccc4)C(C)=C1C3(C)C)[C@]1(OC(C)=O)CO[C@@H]1C[C@@H]2O [PTx Anhydrous Crystal, paclitaxel] |
